Experiments:
Ebola virus [1] = assay: microbe, parasite or virus in culture; type: cell-based; conditions: for EC50: Zaire ebolavirus, Vero, read-out: EC50 of Ebola infection
rVSV-EBOV-GP = assay: organism not typed; type: cell-based, vesicular stomatitis virus expressing EBOV glycoprotein
Ebola virus [2] = type: cell-based
Ebola virus [3] = test system: Ebola virus; set-up: species or system mice; conditions: mouse, in vivo

Row | SMILES | overall infection with Ebola virus (Ebola virus [1]) | EC50 (Ebola virus [1]) [µM] | Ebola entry (rVSV-EBOV-GP) | Ebola replication in cells (Ebola virus [2]) | percentage of Ebola positive cells versus concentration (inhibition of Ebola) (Ebola virus [2]) | mortality of Ebola infected mice (Ebola virus [3]) | percentage survival (Ebola virus [3]; 30 mg/kg) [%] | IC50 (rVSV-EBOV-GP; Vero, 20 h, read-out: IC50 of viral entry inhibition) [µM]
1 | C#Cc1cccc(Nc2ncnc3cc(OCCOC)c(OCCOC)cc23)c1 [erlotinib] | dose-dependent reduction | 4.22 | reduced Ebola entry in a dose-dependent manner | reduces | inhibition of Ebola by erlotinib in a dose-dependent manner | reduces | 100 | –
2 | CCN(CC)CCNC(=O)c1c(C)[nH]c(/C=C2\C(=O)Nc3ccc(F)cc32)c1C [sunitinib] | – | 2.25 | – | – | – | – | – | 6.15

Source: patent US20170136021A1, “METHODS AND COMPOSITIONS FOR TREATING ENVELOPED VIRUSES” (priority 2014, published 2017)
